Measured values reported in ChEMBL document CHEMBL1136673, “Synthesis of low molecular weight compounds with complement inhibition activity” (Bioorg Med Chem Lett, 2003).

Columns and labels:
Assay type in all cases: functional, organism-based; call rule not given here
Ovis aries [1] = species on record: Ovis aries; assay: The concentration effective to cause 50% hemolysis with sensitized sheep erythrocytes in the absence of complement
Ovis aries [2] = species on record: Ovis aries; assay: The concentration required to inhibit complement mediated hemolysis of sensitized sheep RBC
Ovis aries [3] = species on record: Ovis aries; assay: The concentration required to inhibit complement mediated hemolysis of sensitized sheep RBC; not active
Ovis aries [4] = species on record: Ovis aries; assay: Concentration effective to cause 50% hemolysis with sensitized sheep erythrocytes in the absence of complement
Ovis aries [5] = species on record: Ovis aries; assay: Concentration required to inhibit complement mediated hemolysis of sensitized sheep RBC

Compound	EC50 (Ovis aries [1]) [mM]	IC50 (Ovis aries [2]) [mM]	IC50 (Ovis aries [3])	EC50 (Ovis aries [4]) [mM]	IC50 (Ovis aries [5]) [mM]
O=C(O)c1cccc(Oc2ccccc2)c1 [M-PHENOXYBENZOIC ACID FOR CIS-ISOMER]	> 2.8	1.4	–	–	–
COc1cccc(-c2nn[nH]n2)c1	> 3.41	1.56	–	–	–
CCOc1cccc(-c2nn[nH]n2)c1	2.21	0.631	–	–	–
CC1(C)CC[C@]2(C(=O)O)CC[C@]3(C)C(=CC[C@@H]4[C@@]5(C)CC[C@H](O)C(C)(C)[C@@H]5CC[C@]43C)[C@@H]2C1 [OLEANOLIC_ACID]	–	0.0766	–	–	–
O=Cc1cccc(Oc2ccccc2)c1	> 0.0033	1.39	–	–	–
CCOc1cccc(C(=O)O)c1	2.53	–	Not Active	–	–
C[C@H]1[C@H](C)CC[C@]2(C(=O)O)CC[C@]3(C)C(=CC[C@@H]4[C@@]5(C)CC[C@H](O)C(C)(C)[C@@H]5CC[C@]43C)[C@H]12 [URSOLIC ACID]	–	0.0547	–	–	–
CCOc1cccc(C=O)c1	–	1	–	> 4	–
COc1cccc(C=O)c1	> 4.41	–	–	–	0.919
c1ccc(Oc2cccc(-c3nn[nH]n3)c2)cc1	0.954	0.798	–	–	–
COc1cccc(C(=O)O)c1	2.96	–	Not Active	–	–
